Type in all cases: functional
What all share (details): read-out: DIZ

Experiment [1] concerns Burkholderia thailandensis. In words: Antibacterial activity against Burkholderia thailandensis at 0.5 mM by Kirby Bauer disk diffusion method. In general terms: Agar diffusion results depend on both activity and mobility in agar.
The subject of another experiment is Pseudomonas aeruginosa. In words: Antibacterial activity against Pseudomonas aeruginosa at 0.5 mM by Kirby Bauer disk diffusion method.
For the next experiment, the system named is Bacillus cereus. Put plainly: Antibacterial activity against Bacillus cereus at 0.5 mM by Kirby Bauer disk diffusion method.
Another experiment relates to Escherichia coli. In words: Antibacterial activity against Escherichia coli at 0.5 mM by Kirby Bauer disk diffusion method.
The subject of experiment [2] is Mycolicibacterium smegmatis. In words: Antibacterial activity against Mycobacterium smegmatis at 0.5 mM by Kirby Bauer disk diffusion method.
A further experiment relates to Klebsiella pneumoniae. Put plainly: Antibacterial activity against Klebsiella pneumoniae at 0.5 mM by Kirby Bauer disk diffusion method.
The test system of another experiment is Corynebacterium xerosis. In words: Antibacterial activity against Corynebacterium xerosis at 0.5 mM by Kirby Bauer disk diffusion method.
Experiment [3] relates to Corynebacterium pseudodiphtheriticum. In words: Antibacterial activity against Corynebacterium pseudodiphtheriticum at 0.5 mM by Kirby Bauer disk diffusion method.
The next experiment relates to Micrococcus luteus. Put plainly: Antibacterial activity against Micrococcus luteus at 0.5 mM by Kirby Bauer disk diffusion method.

`CCOC(=O)c1cnc(Nc2ccc(CC(=O)O)cc2)nc1O`: the zone of inhibition at 500 µM came to 8 mm in experiment [1]; 0 mm in the experiment on Pseudomonas aeruginosa; 11 mm in the experiment on Bacillus cereus; 10 mm with Escherichia coli; 0 mm in experiment [2]; 9 mm with Klebsiella pneumoniae. The zone of inhibition at 500 µM (in the experiment with Corynebacterium xerosis; in experiment [3]; with Micrococcus luteus) was 0 mm each time.

For `O=C(O)c1cnc(Nc2ccccc2)nc1O`, the zone of inhibition at 500 µM worked out at 0 mm in experiment [1]; 0 mm in the experiment on Pseudomonas aeruginosa; 0 mm with Bacillus cereus; 0 mm with Escherichia coli; 15 mm in experiment [2]; 0 mm in the experiment on Klebsiella pneumoniae. Besides, the zone of inhibition at 500 µM (in the experiment with Corynebacterium xerosis; in experiment [3]; in the experiment with Micrococcus luteus) was 0 mm throughout.

Consider `CCOC(=O)c1cnc(NCc2cc(Cl)ccc2Cl)nc1O`, for which the zone of inhibition at 500 µM in experiment [1] was determined as 9 mm; in the experiment with Pseudomonas aeruginosa, 0 mm; with Bacillus cereus it was 13 mm; in the experiment with Escherichia coli, 0 mm; in [2], 0 mm; with Klebsiella pneumoniae, 0 mm. Moreover, the zone of inhibition at 500 µM was 0 mm in the experiment with Corynebacterium xerosis, 0 mm in experiment [3] and 14 mm in the experiment with Micrococcus luteus.

With `CCOC(=O)c1cnc(NCCc2ccc(Cl)cc2)nc1O`, the zone of inhibition at 500 µM worked out at 0 mm in experiment [1], 0 mm in the experiment on Pseudomonas aeruginosa and 7 mm in the experiment on Bacillus cereus.

On to `CCOC(=O)c1cnc(NCc2ccc(F)cc2)nc1O`, for which the zone of inhibition at 500 µM in [1] is 8 mm; in the experiment on Pseudomonas aeruginosa it was 0 mm; with Bacillus cereus, 19 mm; with Escherichia coli, 0 mm; in experiment [2], 0 mm; in the experiment on Klebsiella pneumoniae, 0 mm. Besides, the zone of inhibition at 500 µM (in the experiment on Corynebacterium xerosis; in experiment [3]; in the experiment with Micrococcus luteus) was 0 mm in each case.

Regarding `CCOC(=O)c1cnc(NCCc2ccccc2Cl)nc1O`, the zone of inhibition at 500 µM was 12 mm in experiment [1]; 0 mm in the experiment with Pseudomonas aeruginosa; 9 mm with Bacillus cereus; 0 mm in the experiment with Escherichia coli; 15 mm in experiment [2]; 0 mm with Klebsiella pneumoniae. Further, the zone of inhibition at 500 µM (in the experiment on Corynebacterium xerosis; in experiment [3]; with Micrococcus luteus) was 0 mm in each case.

In the case of `O=C(O)c1cnc(NCCc2ccc(Cl)c(Cl)c2)nc1O`, the zone of inhibition at 500 µM in experiment [1] came out at 11 mm; in the experiment with Pseudomonas aeruginosa, 0 mm; in the experiment on Bacillus cereus it was 13 mm; in the experiment on Escherichia coli it was 0 mm; in experiment [2], 11 mm; in the experiment on Klebsiella pneumoniae, 8 mm. Besides, the zone of inhibition at 500 µM (in the experiment with Corynebacterium xerosis; in [3]; with Micrococcus luteus) was 0 mm each time.

`CCOC(=O)c1cnc(Nc2ccc(I)cc2)nc1O`: the figures for the zone of inhibition at 500 µM (in [1]; with Pseudomonas aeruginosa; in the experiment with Bacillus cereus) were 0 mm, 0 mm and 13 mm, respectively.

Consider `O=C(O)c1cnc(Nc2ccc3[nH]ncc3c2)nc1O`, for which the zone of inhibition at 500 µM was 10 mm in experiment [1]; 0 mm in the experiment on Pseudomonas aeruginosa; 7 mm with Bacillus cereus; 0 mm in the experiment on Escherichia coli; 14 mm in experiment [2]; 0 mm in the experiment on Klebsiella pneumoniae. In addition, the zone of inhibition at 500 µM (in the experiment on Corynebacterium xerosis; in experiment [3]; with Micrococcus luteus) was 0 mm throughout.

With `CCOC(=O)c1cnc(Nc2ccc(N3CCCCC3)cc2)nc1O`, the zone of inhibition at 500 µM in experiment [1] stood at 14 mm; with Pseudomonas aeruginosa, 13 mm; in the experiment with Bacillus cereus, 15 mm; in the experiment on Escherichia coli, 19 mm; in experiment [2], 16 mm; in the experiment with Klebsiella pneumoniae, 13 mm. The zone of inhibition at 500 µM (with Corynebacterium xerosis; in experiment [3]; in the experiment on Micrococcus luteus) was 0 mm in each case.

As for `CCOC(=O)c1cnc(NCCc2ccccn2)nc1O`, the zone of inhibition at 500 µM in experiment [1] amounted to 0 mm; in the experiment with Pseudomonas aeruginosa it was 0 mm; in the experiment with Bacillus cereus it was 8 mm.

With `CCOC(=O)c1cnc(NCCc2ccc(F)cc2)nc1O`, the zone of inhibition at 500 µM in [1] came to 9 mm; with Pseudomonas aeruginosa, 11 mm; in the experiment with Bacillus cereus, 11 mm; in the experiment with Escherichia coli, 0 mm; in [2], 14 mm; with Klebsiella pneumoniae, 0 mm. The zone of inhibition at 500 µM (in the experiment on Corynebacterium xerosis; in [3]; in the experiment with Micrococcus luteus) was 0 mm throughout.

Turning to `O=C(O)c1cnc(NCc2ccc(Cl)cc2)nc1O`, the zone of inhibition at 500 µM in [1] stood at 11 mm; with Pseudomonas aeruginosa, 15 mm; with Bacillus cereus it was 14 mm; with Escherichia coli it was 14 mm; in experiment [2] it was 15 mm; with Klebsiella pneumoniae it was 9 mm. The zone of inhibition at 500 µM (in the experiment with Corynebacterium xerosis; in experiment [3]; with Micrococcus luteus) was 0 mm in each case.

With `CCOC(=O)c1cnc(NCCc2ccc(Cl)cc2Cl)nc1O`, the zone of inhibition at 500 µM in [1] amounted to 11 mm; with Pseudomonas aeruginosa, 0 mm; in the experiment on Bacillus cereus, 0 mm; in the experiment on Escherichia coli it was 0 mm; in experiment [2] it was 0 mm; in the experiment with Klebsiella pneumoniae it was 0 mm. The zone of inhibition at 500 µM (with Corynebacterium xerosis; in experiment [3]; in the experiment on Micrococcus luteus) was 0 mm throughout.

For the compound `CCOC(=O)c1cnc(NCc2ccc(Cl)c(Cl)c2)nc1O`, the zone of inhibition at 500 µM was 0 mm in experiment [1]; 0 mm in the experiment with Pseudomonas aeruginosa; 12 mm in the experiment with Bacillus cereus; 0 mm in the experiment on Escherichia coli; 0 mm in [2]; 0 mm in the experiment with Klebsiella pneumoniae. Also, the zone of inhibition at 500 µM (in the experiment on Corynebacterium xerosis; in experiment [3]; with Micrococcus luteus) was 0 mm in each case.

As to `CCOC(=O)c1cnc(NCC2CCCO2)nc1O` (stereo unspecified), the zone of inhibition at 500 µM in experiment [1] amounted to 11 mm; in the experiment on Pseudomonas aeruginosa, 0 mm; in the experiment with Bacillus cereus, 0 mm; in the experiment with Escherichia coli, 0 mm; in experiment [2], 15 mm; with Klebsiella pneumoniae, 0 mm. The zone of inhibition at 500 µM (with Corynebacterium xerosis; in experiment [3]; in the experiment on Micrococcus luteus) was 0 mm in each case.

In the case of `CCOC(=O)c1cnc(Nc2cccc(-c3ccccc3)c2)nc1O`, the zone of inhibition at 500 µM in experiment [1] was 0 mm; with Pseudomonas aeruginosa, 0 mm; with Bacillus cereus, 15 mm; with Escherichia coli it was 0 mm; in [2] it was 15 mm; in the experiment with Klebsiella pneumoniae it was 0 mm. The zone of inhibition at 500 µM (in the experiment on Corynebacterium xerosis; in [3]; in the experiment on Micrococcus luteus) was 0 mm throughout.

On to `O=C(O)c1cnc(Nc2ccc(N3CCCCC3)cc2)nc1O`, for which the zone of inhibition at 500 µM in experiment [1] amounted to 11 mm; in the experiment on Pseudomonas aeruginosa, 0 mm; in the experiment on Bacillus cereus, 12 mm; with Escherichia coli it was 11 mm; in [2], 0 mm; in the experiment with Klebsiella pneumoniae, 10 mm. The zone of inhibition at 500 µM (in the experiment on Corynebacterium xerosis; in [3]; in the experiment with Micrococcus luteus) was 0 mm throughout.

Take `CCOC(=O)c1cnc(NCc2ccc(Cl)nc2)nc1O`: the zone of inhibition at 500 µM turned out to be 9 mm in experiment [1], 0 mm with Pseudomonas aeruginosa and 10 mm in the experiment with Bacillus cereus.

For the compound `O=C(O)c1cnc(NCc2ccc(F)cc2)nc1O`, the zone of inhibition at 500 µM in experiment [1] worked out at 12 mm; in the experiment on Pseudomonas aeruginosa, 0 mm; in the experiment on Bacillus cereus, 12 mm; in the experiment on Escherichia coli it was 0 mm; in [2] it was 0 mm; with Klebsiella pneumoniae it was 0 mm. The zone of inhibition at 500 µM (in the experiment with Corynebacterium xerosis; in experiment [3]; in the experiment with Micrococcus luteus) was 0 mm in each case.

As to `O=C(O)c1cnc(NCCc2ccncc2)nc1O`, the figures for the zone of inhibition at 500 µM (in experiment [1]; with Pseudomonas aeruginosa) were 10 mm and 0 mm, respectively.

For the compound `CCOC(=O)c1cnc(NCCc2ccncc2)nc1O`, the figures for the zone of inhibition at 500 µM (in [1]; in the experiment with Pseudomonas aeruginosa; with Bacillus cereus) were 4 mm, 0 mm and 8 mm, respectively.

For the compound `O=C(O)c1cnc(NCc2ccc(Cl)nc2)nc1O`, the values for the zone of inhibition at 500 µM (in experiment [1]; in the experiment on Pseudomonas aeruginosa) were 12 mm and 10 mm, respectively.

Turning to `O=C(O)c1cnc(NCCc2ccc(Cl)cc2)nc1O`, the zone of inhibition at 500 µM in experiment [1] was determined as 12 mm; in the experiment on Pseudomonas aeruginosa, 19 mm; with Escherichia coli it was 0 mm; in experiment [2] it was 14 mm; with Klebsiella pneumoniae, 0 mm; with Corynebacterium xerosis it was 0 mm. Also, the zone of inhibition at 500 µM (in [3]; in the experiment on Micrococcus luteus) was 0 mm each time.

The values are drawn from ChEMBL document CHEMBL4304805, “Antibacterial activity of 2-amino-4-hydroxypyrimidine-5-carboxylates and binding to Burkholderia pseudomallei 2-C-methyl-d-erythritol-2,4-cyclodiphosphate synthase” (Bioorg Med Chem Lett, 2019).
